Source: patent US20120277246A1, “Use of N-Phenyl-2-pyrimidineamine Derivatives Against Mast Cell-based Diseases Like Allergic Disorders” (priority 2001, published 2012)

How the values were obtained:
[1] = molecular target: T1, constitutively activated mutant canine KIT (BR cells, Leucine to Proline substitution at amino acid 575) (Canis lupus familiaris, UniProt O97799, L579P); assay: KIT autophosphorylation in BR cells (anti-P-Tyr Western immunoblot); format: cell-based
T1 construct: Lysates prepared from BR or C2 cells were probed with an anti-P-Tyr antibody; endogenous in cells; host or cells: BR canine mastocytoma cell line
T1 sequence (O97799 28-979 L579P): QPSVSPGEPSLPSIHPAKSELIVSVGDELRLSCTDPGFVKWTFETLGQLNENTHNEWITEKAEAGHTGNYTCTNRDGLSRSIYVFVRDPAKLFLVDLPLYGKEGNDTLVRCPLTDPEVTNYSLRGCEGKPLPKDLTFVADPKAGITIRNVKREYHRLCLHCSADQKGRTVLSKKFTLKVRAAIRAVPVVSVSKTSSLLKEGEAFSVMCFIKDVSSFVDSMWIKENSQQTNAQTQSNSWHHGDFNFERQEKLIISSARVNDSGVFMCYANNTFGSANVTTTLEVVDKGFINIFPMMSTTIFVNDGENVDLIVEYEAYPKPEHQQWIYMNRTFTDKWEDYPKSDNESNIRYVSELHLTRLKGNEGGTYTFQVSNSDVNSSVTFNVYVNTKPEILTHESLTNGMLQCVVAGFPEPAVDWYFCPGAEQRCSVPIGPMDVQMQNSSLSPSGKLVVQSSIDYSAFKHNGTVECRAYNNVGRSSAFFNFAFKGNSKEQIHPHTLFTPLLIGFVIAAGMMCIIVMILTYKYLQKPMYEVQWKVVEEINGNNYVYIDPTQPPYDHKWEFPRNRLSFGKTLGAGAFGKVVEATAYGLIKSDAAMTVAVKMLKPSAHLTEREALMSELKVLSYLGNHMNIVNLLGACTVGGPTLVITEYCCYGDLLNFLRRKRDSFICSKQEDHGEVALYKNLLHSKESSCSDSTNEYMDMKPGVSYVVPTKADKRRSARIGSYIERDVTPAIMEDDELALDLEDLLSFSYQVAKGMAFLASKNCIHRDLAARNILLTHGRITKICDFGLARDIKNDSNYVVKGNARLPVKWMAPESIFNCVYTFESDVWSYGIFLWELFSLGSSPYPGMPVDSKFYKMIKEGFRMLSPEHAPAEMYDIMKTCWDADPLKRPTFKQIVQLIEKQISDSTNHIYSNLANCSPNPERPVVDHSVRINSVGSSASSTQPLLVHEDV
Description: (§1) Antibodies: A polyclonal rabbit anti-KIT antibody (c-kit Ab-1) was used at a dilution of 1:500 (c-kit Ab-1; Oncogene, Cambridge, Mass.). An anti-phosphotyrosine antibody (PY20) was used at a dilution of 1:1000 (PY20 Transduction Laboratories; Lexington, Ky.). Peroxidase conjugated goat anti-mouse antibody was used at a dilution of 1:5000 and goat anti-rabbit antibody at a dilution of 1:10,000 (Pierce; Rockford, Ill.).
(§2) Cell lines: BR and C2 canine mastocytoma cells lines were obtained from Dr. George Caughey (University of California at San Francisco, San Francisco, Calif.). Both cell lines were maintained in DMEM supplemented with 2% bovine calf, 1 mM L-glutamine, 12.5 mM HEPES (pH 7.5), 0.25 mg/ml Histidine, 1% Penicillin-Streptomycin and 1% fungizone. The BR and C2 cells were derived from canine mast cell tumors and were originally established in long-term culture after initial passaging in immunodeficient mice (DeVinney R et al., Am J Respir Cell Mol Biol 1990; 3(5):413-420; Lazarus S C et al., Am J Physiol 1986; 251(6 Pt 1):C935-C944). The BR cell line has a point mutation (T1752C) resulting in a Leucine to Proline substitution at amino acid 575 (juxtamembrane domain). The C2 cell line has an internal tandem duplication (ITD) of the KIT juxtamembrane region.
(§3) Protein lysates: BR and C2 cells were washed×2 in PBS and then quiesced in Optimem (Gibco-BRL) at 37° C. for approximately 18 hours.
(§4) The KIT mutations in these cell lines are both located in the juxtamembrane domain and are homologous to mutations seen in human Gastrointestinal Stromal Tumors (GISTS) (Lux et al., Am. J. Pathol., Vol. 156, No. 3, pp. 791-795 (2000); Rubin et al., Cancer Res., Vol. 61, No. 22, pp. 8118-8121 (2001)). Lysates prepared from BR or C2 cells were probed with an anti-P-Tyr antibody and KIT receptor activation was assessed by measuring autophosphorylation.

[2] = system: C2 canine mastocytoma cells; assay: Proliferation of C2 cells, XTT-based assay; format: cell-based; conditions: C2 cells (data not shown)
[3] = system: C2 canine mastocytoma cells; assay: Proliferation of C2 cells, XTT-based assay; format: cell-based; conditions: for % (percent of maximal proliferation, cells only) / Averages (XTT-based assay reading): 72 hours; for Averages (XTT-based assay reading): triplicate
Description: as §2, with “region. The translation of this ITD results in reduplication of amino acid residues at the 3′ end of exon 11 (London et al., Exp. Hematol., Vol. 27, No. 4, pp. 689-697 (1999); Ma et al., J. Invest. Dermatol., Vol. 112, No. 2, pp. 165-170 (1999)).” for “region.”
(§5) Proliferation assays: Cells were added to 96-well plates at a density of 40,000 cells/well in normal culture media and varying concentrations of SALT I. Proliferation was measured at 48-72 hours using an XTT-based assay (Roche Molecular Biochemicals; Indianapolis, Ind.) (Heinrich et al., Blood, Vol. 96, No. 3, pp. 925-932 (2000))
(§6) Representative results from one of six independent experiments are shown.

[4] = system: BR canine mastocytoma cells; assay: Proliferation of BR cells, XTT-based assay; format: cell-based; conditions: for % (percent of maximal proliferation, cells only) / Averages (XTT-based assay reading): 72 hours; for Averages (XTT-based assay reading): triplicate
Description: as §2, with “region. The translation of this ITD results in reduplication of amino acid residues at the 3′ end of exon 11 (London et al., Exp. Hematol., Vol. 27, No. 4, pp. 689-697 (1999); Ma et al., J. Invest. Dermatol., Vol. 112, No. 2, pp. 165-170 (1999)).” for “region.”
as §5, §6

[5] = system: cutaneous mast cell tumors; assay: Prospective case series of pet dogs with measurable cutaneous mast cell tumors; format: in vivo; conditions: 25 mg/kg PO QD x 60 days of SALT I, prospective example
Description: The study patients are pet dogs with measurable and histologically-confirmed mast cell tumors. Cases are limited to those with measurable lesions amenable to biopsy.
Eligibility criteria are: • Histologically-confirmed measurable cutaneous mast cell tumors • Cases will require serial biopsy with […] Keyes punch before and during therapy • Histological grade (II-intermediate or III-poorly differentiated) • Performance status 0 or I (Modified Karnofsky—Table 3) • Informed owner consent
Exclusion criteria are: • Concurrent cytotoxic chemotherapy • Prednisone and non-steroidal anti-inflammatory drugs may not be initiated within 30 days of the study; if prednisone or non-steroidal anti-inflammatory drugs have been administered for greater than 30 days they may be continued • Abnormal serum bile acid test (liver function)
Pretreatment evaluation of all cases include physical examination, complete blood count, buffy coat, serum biochemistry, urinalysis, serum bile acids (fasting and post-prandial), documentation of regional lymph node size, abdominal radiographs, and abdominal ultrasound. […]
The efficacy of COMPOUND I is assessed against measurable cutaneous mast cell tumors, using clinical endpoints. […]
Clinical endpoints include response rate of measurable tumors, objective response against measurable tumor, and time to progression of measurable tumor. All adverse side effects will be recorded.

[6] = system: constitutively activated mutant canine KIT (C2 cells, internal tandem duplication of the juxtamembrane region); assay: KIT autophosphorylation in C2 cells (anti-P-Tyr Western immunoblot); format: cell-based
Description: as §1, §2, §3, §4

[7] = system: cultured human mast cells generated from CD34+ cord blood cells; assay: SCF-dependent growth of cultured human mast cells (suspension culture, trypan-blue viable cell count); format: cell-based
Description: (§7) More than 90% of the isolated cells were CD34-positive according to the flow cytometric analysis.
(§8) Serum-deprived liquid cultures are carried out in 24-well culture plates (#3047; Becton Dickinson). Twenty thousand CD34^+ cells are cultured in each well containing 2 mL of […]-medium supplemented with 1% BSA, 300 μg/mL fully iron-saturated human transferrin (approximately 98% pure, Sigma), 16 μg/mL soybean lecithin (Sigma), 9.6 μg/mL cholesterol (Nakalai Chemicals Ltd., Japan) and 20 ng/mL of SCF, 10 ng/mL of GM-CSF, 2 U/mL of EPO, 10 ng/mL of TPO, different concentrations of a COMPOUND OF THE INVENTION, alone or in combination. In order to examine the effects of a COMPOUND OF THE INVENTION on the SCF-dependent development of mast cells, 10-week cultured cells grown with 20 ng/mL of SCF from CD34^+ cord blood cells are used as target cells. Five to ten×10^4 10-week cultured cells are incubated for 2 weeks in 24-well culture plates containing 20 ng/mL of SCF with or without various concentrations of a COMPOUND OF THE INVENTION. The plates are incubated at 37° C. in a humidified atmosphere flushed with a mixture of 5% CO2, 5% O2 and 90% N2. When the culture continued until 4 weeks, half of the culture medium is replaced every 2 weeks with fresh medium containing the factor(s). The number of viable cells is determined by a trypan-blue exclusion test using a hemocytometer.

[8] = system: cultured mast cells grown under stimulation with SCF; assay: Detection of cellular apoptosis (PI flow cytometry, DNA gel electrophoresis)
CD34+ cord blood cells = assay: Cell production by CD34+ cells under stimulation with SCF (suspension culture); format: cell-based, human; conditions: STI571B at 10^-6 M
Description: as §7, §8

[9] = membrane reprobed with anti-c-kit antibody

## Cc1ccc(NC(=O)c2ccc(CN3CCN(C)CC3)cc2)cc1Nc1nccc(-c2cccnc2)n1 [COMPOUND I]
[1]; 0.1 μM
  inhibition of KIT autophosphorylation: Near complete inhibition
[1]; 1.0 μM
  inhibition of KIT autophosphorylation: complete inhibition
[1]; 10 μM
  inhibition of KIT autophosphorylation: complete inhibition
[1]; 0.001-0.01 μM
  autophosphorylation of c-kit: Limited autophosphorylation
[1]; [9]
  expression of c-kit protein: no change
[2]
  morphologic observations of inhibitor treated cells: changes consistent with apoptosis
[3]; 1 μM
  % (percent of maximal proliferation, cells only): 3%
  Averages (XTT-based assay reading): 0.037
[3]; 5 μM
  % (percent of maximal proliferation, cells only): 3%
  Averages (XTT-based assay reading): 0.032
[3]; 0.001-0.01 μM, 48-72 hours
  inhibition of proliferation: Partial inhibition
[3]; 0.1-10 μM, 48-72 hours
  decrease of proliferation compared to cells treated with media only: 90-95%
[3]; .001 μM
  % (percent of maximal proliferation, cells only): 86%
  Averages (XTT-based assay reading): 1.065
[3]; .01 μM
  % (percent of maximal proliferation, cells only): 61%
  Averages (XTT-based assay reading): 0.754
[3]; .1 μM
  % (percent of maximal proliferation, cells only): 2%
  Averages (XTT-based assay reading): 0.028
[4]; BR cells (data not shown)
  morphologic observations of inhibitor treated cells: changes consistent with apoptosis
[4]; BR cells, 1 μM
  % (percent of maximal proliferation, cells only): 11%
  Averages (XTT-based assay reading): 0.105
[4]; BR cells, 5 μM
  % (percent of maximal proliferation, cells only): 9%
  Averages (XTT-based assay reading): 0.083
[4]; BR cells, 0.001-0.01 μM, 48-72 hours
  inhibition of proliferation: Partial inhibition
[4]; BR cells, 0.1-10 μM, 48-72 hours
  decrease of proliferation compared to cells treated with media only: 90-95%
[4]; BR cells, .001 μM
  % (percent of maximal proliferation, cells only): 84%
  Averages (XTT-based assay reading): 0.781
[4]; BR cells, .01 μM
  % (percent of maximal proliferation, cells only): 52%
  Averages (XTT-based assay reading): 0.479
[4]; BR cells, .1 μM
  % (percent of maximal proliferation, cells only): 11%
  Averages (XTT-based assay reading): 0.105
[5]
  Objective Tumors Responses: observed
[6]; 0.1 μM
  inhibition of KIT autophosphorylation: Near complete inhibition
[6]; 1.0 μM
  inhibition of KIT autophosphorylation: complete inhibition
[6]; 10 μM
  inhibition of KIT autophosphorylation: complete inhibition
[6]; 0.001-0.01 μM
  autophosphorylation of c-kit: Limited autophosphorylation
[6]; [9]
  expression of c-kit protein: no change

## Cc1ccc(NC(=O)c2ccc(CN3CCN(C)CC3)cc2)cc1Nc1nccc(-c2cccnc2)n1 [STI571B, N-{5-[4-(4-methyl-piperazino-methyl)-benzoylamido]-2-methyl-phenyl}-4-(3-pyridyl)-2-pyrimidine-amine monomesylate]
[7]; SCF plus STI571B, after day 2
  number of viable cells: declines in a time-dependent fashion
[7]; SCF plus STI571B, day 2
  number of viable cells: unchanged
[7]; SCF plus STI571B, day 14
  total cell number: negligible level
[7]; STI571B at 10^-6 M or higher, 10-week cultured mast cells, SCF
  progeny generation in culture with SCF: almost completely inhibits
[8]; SCF plus STI571B, over culture period
  percentage of sub-diploid nuclei: increases with the culture period
[8]; cells exposed to SCF plus STI571B
  DNA laddering on gel electrophoresis: DNA laddering
[8]; grown under stimulation with SCF
  programmed death of cultured mast cells: induces a programmed death
CD34+ cord blood cells
  cell production by CD34+ cells under stimulation with SCF: markedly depresses
